The test system of one series is THP-1 cells. Nature of the series: Cell Titer-Glo viability (cytotoxicity) assay, THP-1. Type of series: cell-based, human. As to conditions: 72 hours exposure. The text has this: (§1) We chose to use doxorubicin as the anthracycline as it is the best tolerated anthracycline in C57/Bl6 mice^11 and would allow for comparisons between in vivo and in vitro studies.
Background: In ATP-based viability assays light output follows the ATP content of the culture.

The subject of series [1] is MR2 cells (MLL-ENL + NRasG12D). Description: cells. To be noted: Mus musculus, read-out: IC50 MR2.
Procedure: (§8) Cells were grown at 37° C. with 5% CO2. Viability assays were done using the Cell Titer-Glo assay (Promega, Madison, Wis.) according to the manufacturer's protocol. All murine cells were derived from fetal liver cells infected with MLL-ENL alone or with a mutation of glycine at amino acid 12 to aspartate of NRAS (NRAS^G12D) or FLT3-ITD expressing vectors^10. Murine cells were maintained in stem cell media (40% DMEM, 40% IMDM, 20% FBS, supplemented with murine SCF to 10 ng/ml, murine IL6 to 2 ng/ml, and murine IL3 to 0.4 ng/ml).
For series [2], the system named is K562 cells. Description: Cell Titer-Glo viability (cytotoxicity) assay, K562. Type of series: cell-based, human. To be noted: 72 hours exposure.
Excerpt: as §1

Series [3] deals with M1 cells (MLL-ENL alone). Description: cells. As to conditions: Mus musculus, read-out: IC50 M1.
Procedure: as §8
The next series relates to OCI-AML3 cells. Nature of the series: Cell Titer-Glo viability (cytotoxicity) assay, OCI-AML3. In kind it is cell-based, human. As to conditions: 72 hours exposure.
Excerpt: as §1

For series [4], the system named is MFL2 cells (MLL-ENL + Flt3 ITD). Nature of the series: cells. To be noted: Mus musculus, read-out: IC50 MFL2.
Procedure: as §8
The next series has as its system Jurkat cells. Nature of the series: Cell Titer-Glo viability (cytotoxicity) assay, Jurkat. Type of series: cell-based, human. As to conditions: 72 hours exposure.
Excerpt: as §1

A further series deals with HL60 cells. Description: Cell Titer-Glo viability (cytotoxicity) assay, HL60. Type of series: cell-based, human. To be noted: 72 hours exposure.
Excerpt: as §1

For a further series, the system named is KG1a cells. Nature of the series: Cell Titer-Glo viability (cytotoxicity) assay, KG1a. In kind it is cell-based, human. To be noted: 72 hours exposure.
Excerpt: as §1

Series [5] deals with murine AML cells expressing p210 BCR-ABL. Description: Cytotoxicity assay of murine AML cells expressing p210 BCR-ABL. To be noted: 72 hours. In kind it is cell-based. The text has this:
(§2) FIG. 1. […] (B) Flow cytometry of Annexin V assay.
(§3) In addition to p53 loss, several other adverse prognostic factors are expressed in the cell lines tested. K562 cells express the fusion gene BCR-ABL that has been implicated in chemotherapy resistance^17 and prognosis in AML^18. THP-1 cells express high levels of MN1^18, shown to confer an adverse prognosis^20-21.

The test system of series [6] is murine AML cells expressing human MN1. Nature of the series: Cytotoxicity assay of murine AML cells expressing MN1. Type of series: cell-based. To be noted: 72 hours.
Excerpt: as §2, §3

Series [7] has as its system MLL-ENL- and FLT3 ITD-expressing cell line with p53-targeting shRNA. Description: Cytotoxicity assay of murine AML cells with p53 knockdown. As to conditions: p53 shRNA vs control vector, 72 hours.
The test system of series [8] is MFL2 cell line (MLL-ENL and FLT3 ITD) leukemia in C57/Bl6 mice. As to conditions: for survival compared to controls: 5-FU 121 mg/kg. The text has this:
FIG. 6. […] A) Schema of treatment trial. C57/Bl6 mice were sublethally irradiated to 4.5 Gy and injected with an MLL-ENL and Fms-like tyrosine kinase 3 internal tandem duplication (FLT3-ITD) syngeneic leukemia. […] (B) Bioluminescent image of mice on day 6 following treatment. (C) Kaplan-Meier curves for animals treated with Fd, 5-FU or AD as above.
(§4) The Wake Forest University Institutional Animal Care and Use Committee approved all mouse experiments. Luciferase-tagged leukemia cells were transplanted into 6- to 8-wk-old sublethally irradiated recipient mice (4.5 Gy) by tail-vein injection of 1×10^6 viable cells. Mice were monitored by bioluminescent imaging on day 7. Imaging was performed using an IVIS100 imaging system (Caliper LifeSciences, Hopkinton, Mass.). Mice were injected with 150 mg/kg D-Luciferin (Gold Biotechnology, St. Louis, Mo.), anesthetized with isoflurane, and imaged for 2 min. Chemotherapy was initiated upon detection of clear signals. […] Control animals were injected with PBS. Repeat luciferase imaging was performed on day 6 of treatment.
(§5) Recent studies have shown that the bone marrow microenvironment can have a profound effect on chemotherapy response in AML^24. Additionally, the immune system can affect the degree of response to a given therapy in vivo^25. […] This cell line express MLL-ENL and the mutated oncogene, NRas^G12D in conjunction with a luciferase reporter. […] This cell line expresses the FLT3 receptor with an internal tandem duplication (FLT3 ITD) in place of NRas^G12D. […] (300 mg/kg), 5-FU (121 mg/kg) or Ara-C (125 mg/kg) plus doxorubicin (3.75 mg/kg) on days 1, 3, 5, and 7 (FIG. 1A).

The test system of series [9] is K562 cells. As to conditions: 24 hours.
Procedure: (A) Immuno-fluorescence for gamma histone H2AX (γH2AX) foci. K562 cells were treated with the indicated drug for 24 hours and then assayed for the presence of γH2AX foci. Secondary antibody was conjugated with Alexa Fluor 594 and Images were captured with an Olympus IX70 inverted fluorescent microscope equipped with a Retiga 2000R digital color camera and using an LPIanFI 20×/0.40 objective. Images were analyzed with Image Pro Plus 5.1 software.
For immunofluorescence studies of phosphorylated γH2AX, cells were fixed with 4% NBF, permeabilized with PBS containing 0.2% Triton-X 100, and probed with anti-phosphoH2AX (#2577, 1:100; Cell Signalling Technologies) followed by donkey anti-rabbit Alexa Fluor 594 conjugated antibody (1:500, A-21207; Invitrogen) and visualized via fluorescence microscopy.
Another series has as its target T1, thymidylate synthase (Homo sapiens, UniProt P04818).
T1 construct: endogenous in cells; host or cells: HL60
Nature of the series: TS catalytic activity in treated HL60 cells. In kind it is cell-based. As to conditions: 100 nM 5-FU.

The next series concerns THP-1 and HL60 cells. As to conditions: 48 hours.
Series [10] concerns MLL-ENL driven murine AML cells.
Procedure: FIG. 4. […] (A) EdU incorporation assays. MLL-ENL driven murine AML cells were incubated with the indicated drug for 8 hours and subjected to a 5-ethynl-2′ deoxyuridine (EdU) incorporation assay. S phase cells were gated as shown. Percentages shown are for cells in S phase. (B) EdU incorporation assay as in (A). Cells were infected with either a p53 targeting shRNA or a control vector and exposed to the indicated drug for 8 hours.
A further series deals with normal C57/Bl6 mice. Nature of the series: Toxicology study, histopathology. In kind it is in vivo, mouse. As to conditions: dosed days 1, 3, 5, 7; sacrificed three days after last treatment. The method, then:
(§6) FIG. 7. […] Mice were treated in the same manner as the in FIG. 6; sacrificed 72 hours after the last dose; and organs were harvested, fixed, paraffin-embedded, sectioned, and stained. Slides were imaged using a Nikon Eclipse 50i light microscope, magnification as indicated. Photographs of tissues were taken using the NIS Elements D3.10 camera and software system. (B) Bone marrow transplant. […] Ly5.1+C57/Bl6 recipient mice were irradiated to 8 gray and injected with donor cells. After three weeks recipients were harvested and degree of femur engraftment by donor cells was determined by staining with Ly5.2 antibody and analyzed by flow cytometry.
(§7) Normal C57/Bl6 mice were treated with identical dose, schedule and route of each drug as in the efficacy studies (i.e. Day 1, 3, 5 and 7). 72 hours after the last dose, animals were sacrificed, bilateral femoral cells harvested and organs fixed in 10% neutral buffered formalin followed by routine tissue processing and sectioning for hematoxylin and eosin staining. Slides were then reviewed by a veterinary pathologist using a Nikon Eclipse 50i light microscope. Photographs of tissues were taken using the NIS Elements D3.10 camera and software system. […] Three weeks later recipient femoral bone marrow was harvested and stained with APC-conjugated anti-Ly5.2 antibody (BD Pharmingen, San Diego, Calif.) and analyzed by flow cytometry. […]

Another series deals with normal murine HSCs. As to conditions: mouse, in vivo. The method, then:
as §6, §7

Series [11] has as its system MFL2 cells (MLL-ENL + Flt3 ITD). As to conditions: read-out: IC50 MFL2.
Procedure: as §8
Series [12] concerns MR2 cells (MLL-ENL + NRasG12D). To be noted: read-out: IC50 MR2.
Procedure: as §8
The subject of series [13] is murine AML cells expressing the p53 shRNA. To be noted: 48 hours.
Procedure: (B) Flow cytometry of Annexin V assay. Cells expressing the p53 short hairpin RNA (shRNA) were exposed to the indicated drug for 48 hours and then labeled with Annexin V and propidium iodide (PI).
(§9) Cells were seeded in 6-well plates at 25,000 cells/ml in 3 mls, grown for 2 days and treated with the indicated drug for 16, 24, 36, or 48 hours. After centrifugation and washing in cold PBS cells were stained with PI (Sigma Aldrich, St. Louis, Mo.) and APC-conjugated Annexin V in a binding buffer (0.1 M Hepes (pH 7.4), 1.4 M NaCl, and 25 mM CaCl2 solution) (BD Pharmingen, San Jose, Calif.) according to the manufacturer's protocol. Flow cytometric analysis was conducted on a BD FACS Cantoll cytometer with the BD FACSDiva software (BD Biosciences, San Jose, Calif.).
The target of series [14] is topoisomerase I cleavage complexes (Top1CC) in THP-1, Jurkat and HL60 cells (Homo sapiens, UniProt P11387). Description: ICE bioassay / Top1 cleavage complex detection. To be noted: 100 nM, 24 or 48 hours.
Chain of topoisomerase I cleavage complexes (Top1CC) in THP-1, Jurkat and HL60 cells (P11387 2-765 limits assumed, one chain of several): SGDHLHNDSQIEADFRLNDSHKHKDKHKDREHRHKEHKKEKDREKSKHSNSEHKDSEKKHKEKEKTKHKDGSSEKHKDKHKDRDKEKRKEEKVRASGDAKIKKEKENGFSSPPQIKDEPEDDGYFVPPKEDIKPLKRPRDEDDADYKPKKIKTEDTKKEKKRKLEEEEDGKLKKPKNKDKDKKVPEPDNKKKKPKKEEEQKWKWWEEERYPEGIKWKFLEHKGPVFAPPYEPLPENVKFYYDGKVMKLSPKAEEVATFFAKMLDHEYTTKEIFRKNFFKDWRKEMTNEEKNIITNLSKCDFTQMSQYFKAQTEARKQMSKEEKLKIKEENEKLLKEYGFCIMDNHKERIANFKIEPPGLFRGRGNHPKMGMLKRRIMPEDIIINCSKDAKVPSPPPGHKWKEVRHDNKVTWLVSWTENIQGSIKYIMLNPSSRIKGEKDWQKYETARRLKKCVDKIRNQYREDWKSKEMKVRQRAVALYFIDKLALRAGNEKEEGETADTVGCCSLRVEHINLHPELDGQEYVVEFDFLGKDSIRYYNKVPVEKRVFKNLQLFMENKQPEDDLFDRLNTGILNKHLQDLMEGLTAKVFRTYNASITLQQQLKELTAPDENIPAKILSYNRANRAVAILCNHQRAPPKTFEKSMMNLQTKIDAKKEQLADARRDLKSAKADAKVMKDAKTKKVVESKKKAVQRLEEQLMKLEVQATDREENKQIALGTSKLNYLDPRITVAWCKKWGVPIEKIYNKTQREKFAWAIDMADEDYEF
Procedure: (B) ICE bioassay for Top1 cleavage complexes. […] Cells were lysed and subjected to ICE bioassay (see methods), and DNA-containing fractions were blotted for Topo I. (C) Results of TS and Top1 Western blots.
Cells were plated at 1.5×10^6 cells in 100 mm^2 plates and grown in RPMI 1640 medium with 20% FBS. […] Cells were lysed in 2 ml of 1% sarkosyl in 1×TE pH 7.5 and frozen at −20° C. Samples were homogenized approximately 25 times. Addition of 1 ml of sarkosyl was used to wash the homogenizer. CsCl gradients were made as in^9. The samples were overlaid and ultracentrifuged in a SW41T rotor. Centrifugation was at 36K for 20-22 hours at 20° C. 500 ml fractions were collected. Fractions 6 through 11 were used for analysis. 200 ul of each fraction and an equal volume of 25 mM NaPO4 buffer (pH 6.5) were loaded onto a nitrocellulose membrane using a Schleicher and Schuell Minifold II slot blotter. The membrane was blocked with 5% milk in TBST. Primary antibody was added at 1:500 dilution, overnight at 4° C. Secondary antibody was used in the same manner. ECL Lightning Plus (Perkin Elmer) was used for detection of the TOP1 cleavage complex.
Another series relates to murine AML cell lines. As to conditions: 24 hours. The method, then: FIG. 11. […] (A) Flow cytometry results of Annexin V assays. The indicated MLL-ENL driven leukemia cells were treated with drug for 24 hours analyzed by flow cytometry, as in FIG. 5. (B) MLL-ENL and neuroblastoma RAS viral oncogene homolog (NRAS) containing AML cells were exposed to the indicated drug for 24 hours and analyzed as in (A).

Series [15] relates to MR2 cell line (MLL-ENL and NRasG12D) leukemia in C57/Bl6 mice.
Excerpt: FIG. 12. […] C57/Bl6 mice were sublethally irradiated to 4.5 Gy and injected with an MLL-ENL and NRAS syngeneic leukemia. […] P value was obtained by log rank test. […] P value was obtained by log rank test.
as §4, §5

In series [16] the test system is M1 cells (MLL-ENL alone). To be noted: read-out: IC50 M1.
Procedure: as §8
The subject of series [17] is human LSCs (K562 and HL60 cells, three primary patient samples). As to conditions: 24 hours drug, colonies read on or after day 7.
Procedure: (A) Colony formation assays. Primary patient samples or cell lines were incubated with the indicated drug for 24 hours and placed in methylcellulose media. Plates were read on or after day 7. All concentrations were done in triplicate. Primary AML is the combined results of three independent primary patient samples. Colony numbers are normalized to controls and error bars represent the standard error.
[18] abbreviates: days 1, 3, 5 and 7, FdUMP[10] 300 mg/kg.

Where two headings read alike, the source gives them in different places.

T1 sequence (P04818 2-313 limits assumed): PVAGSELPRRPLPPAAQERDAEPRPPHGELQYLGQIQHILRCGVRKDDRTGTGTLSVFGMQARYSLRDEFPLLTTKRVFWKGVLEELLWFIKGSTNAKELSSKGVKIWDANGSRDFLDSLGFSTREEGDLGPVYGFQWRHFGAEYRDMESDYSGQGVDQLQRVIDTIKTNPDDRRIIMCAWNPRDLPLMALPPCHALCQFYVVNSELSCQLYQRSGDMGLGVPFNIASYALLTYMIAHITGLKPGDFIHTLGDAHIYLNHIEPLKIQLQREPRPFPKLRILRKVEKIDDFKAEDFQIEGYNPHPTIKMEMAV
Procedure for THP-1 and HL60 cells: (B) Flow cytometry of Annexin V assay. THP-1 or HL60 cells were treated with the indicated drug for 48 hours and then labeled with Annexin V and propidium iodide (PI) and analyzed by flow cytometry.
as §9

Consider `Nc1ccn([C@@H]2O[C@H](CO)[C@@H](O)[C@@H]2O)c(=O)n1` [Cytarabine, cytarabine], for which the half-inhibitory concentration (IC50) in the series with THP-1 cells (Homo sapiens, THP-1) was found to be 6700 nM; in series [1], 71.8 nM; with K562 cells [2] (Homo sapiens, K562) it was 83.7 nM; in the series with M1 cells (MLL-ENL alone) [3], 46.8 nM; in the series on OCI-AML3 cells (Homo sapiens, OCI-AML-3), 134 nM; in series [4], 54.4 nM. Besides, the IC50 in the series on Jurkat cells (Homo sapiens, Jurkat) came out at 15.5 nM; with HL60 cells (Homo sapiens, HL-60), 145 nM; in the series with KG1a cells (Homo sapiens, KG-1a), 196 nM.
For `COc1cccc2c1C(=O)c1c(O)c3c(c(O)c1C2=O)C[C@@](O)(C(=O)CO)C[C@@H]3O[C@H]1C[C@H](N)[C@H](O)[C@H](C)O1` [Doxorubicin, doxorubicin], the 50% inhibitory concentration (IC50) in the series on THP-1 cells (Homo sapiens, THP-1) was found to be 160 nM; in series [1] it was 11.4 nM; in the series with K562 cells [2] (Homo sapiens, K562) it was 253 nM; in the series with M1 cells (MLL-ENL alone) [3] it was 3.7 nM; in series [4], 24.6 nM; in the series on Jurkat cells (Homo sapiens, Jurkat), 75.2 nM. In addition, the half-inhibitory concentration (IC50) in the series with HL60 cells (Homo sapiens, HL-60) came out at 21.7 nM; with KG1a cells (Homo sapiens, KG-1a) it was 1300 nM. The “fold change of IC50 vs parental leukemia cells, p210 BCR-ABL” value in series [5] was found to be 2.95 fold. Also, the “fold change of IC50 vs parental leukemia cells, MN1” value in series [6] is listed as greater than 10 fold. Besides, in series [7], the “change in response (viability) on loss of p53 response” value is “resistance”.
Turning to `O=c1[nH]cc(F)c(=O)[nH]1` [5-FU, 5-fluorouracil], the IC50 with THP-1 cells (Homo sapiens, THP-1) stood at 1200 nM; in [1] it was 214 nM; with K562 cells [2] (Homo sapiens, K562), 7000 nM; in [4], 292 nM; in the series on Jurkat cells (Homo sapiens, Jurkat), 7500 nM; with HL60 cells (Homo sapiens, HL-60), 5000 nM. In addition, in the series with KG1a cells (Homo sapiens, KG-1a), the IC50 is 5300 nM. Besides, the deaths on treatment result in series [8] (5-FU 121 mg/kg days 1, 3, 5, 7) was “early deaths”. In addition, the “survival compared to controls” value in series [8] (setting [18]) is listed as “no survival benefit over controls”. Moreover, the “γH2AX foci (DNA DSBs)” value in the series on K562 cells [9] (1 μM) was “did not result in the formation of γH2AX foci”. Moreover, the TS inhibition result on thymidylate synthase was “did not significantly inhibit TS”. Also, in the series on THP-1 and HL60 cells (100 nM 5-FU), the “apoptosis by Annexin V staining” value is “only minimal annexin V positive cells”. Besides, the “accumulation of cells in S-phase” value in series [10] (eight hours, 5-FU at 100 times the FdUMP[10] concentration) is given as “essentially no difference in the number of cells in S-phase from control”. The “GI-tract histopathology (small and large intestine)” value in the series on normal C57/Bl6 mice was “severe villous blunting and fusion with crypt necrosis”. Besides, the bone marrow histopathology entry in the series on normal C57/Bl6 mice is given as “severe pancytopenia”. Moreover, the “engraftment of femur cells from treated donors in irradiated recipients” value with normal murine HSCs was “only minimal engraftment”.
Turning to “10-mer oligonucleotide of 5-fluorodeoxyuridine [FdUMP[10]]”, the IC50 in the series with THP-1 cells was 4.1 nM; in series [11], 0.131 nM; in series [12], 0.124 nM; with K562 cells [2], 21.5 nM; in the series with OCI-AML3 cells, 5.5 nM; in the series with Jurkat cells it was 5.4 nM. Besides, the IC50 in the series on HL60 cells came to 3.4 nM; in the series on M1 cells (MLL-ENL alone) [16], 0.124 nM; in the series on KG1a cells it was 4.9 nM. Besides, in series [8] (Ara-C 125 mg/kg plus doxorubicin 3.75 mg/kg, days 1, 3, 5, 7), the “survival compared to Ara/Dox treated animals” value is “no difference in survival”. For the same compound, the “disease burden (bioluminescent imaging)” value in [8] (setting [18]) is “reduced disease burden”. The “survival compared to controls” value in series [8] (setting [18]) is on record as “improved survival”. Moreover, in series [13], the “Annexin V binding in p53-suppressing cells” value was “positive for Annexin V binding”. For the same compound, the “trapped Top1 cleavage complexes” value in series [14] is listed as “Top1 was detected co-migrating with genomic DNA”. Moreover, in the series with murine AML cell lines, the “apoptosis induction in murine AML cell lines” value is on record as “efficiently induced apoptosis”. Also, the survival entry in series [15] (300 mg/kg every other day for four doses) is listed as “significant survival benefit”. Besides, the “disease burden (bioluminescence)” value in series [15] (300 mg/kg on days 1 and 4) is recorded as “reduction in disease burden”. The “survival vs untreated controls” value in series [15] (300 mg/kg on days 1 and 4) was “statistically significant survival benefit”. Besides, in the series with K562 cells [9] (10 or 100 nM), the “γH2AX foci (DNA DSBs)” value is recorded as “formation of multiple γH2AX foci”. In addition, the “apoptosis by Annexin V and propidium iodide staining” value in the series with THP-1 and HL60 cells (10 or 100 nM) is reported as “a majority of cells were stained positive”. Moreover, in [10] (8 hours exposure), the “S-phase arrest in cells expressing a p53 targeting shRNA” value is “efficiently arrested in S-phase”. Moreover, the “accumulation of cells in S-phase” value in [10] (eight hours exposure) was “cells accumulated in S-phase”. In addition, the “suppression of colony formation, cell lines and primary patient samples” value in [17] was “highly effective in suppressing colony formation”. Besides, the “change in response (viability) on loss of p53 response” value in [7] is on record as “no change observed”.

Usually IC50 stands for the concentration needed to halve the response being measured.
